Reference: patent publication US6465205B2, “In vitro cell culture device including cartilage and methods of using the same” (The Research Foundation of State University of New York, priority 1999, dated 2002)

Key:
[1] = test system: matrix metalloproteinases (MMP-2, MMP-9) in chondrocyte-conditioned medium; assay: Gelatin zymography for MMP activity; assay type: biochemical, bovine or porcine
Procedure: Cell viability and number were determined by Trypan blue staining and counting using a hemocytometer. Chondrocytes were plated on collagen inserts (Costar Transwell, VWR, Pittsburgh, Pa.) at 20-40×10^6 cells/well in DMEM/F12 containing antibiotics, 10% FBS, and 50 μg/ml ascorbic acid (prepared fresh and added every other day). After the chondrocytes had formed a layer of extracellular matrix (approximately 2 weeks), the medium was switched to serum free (DMEM/F12 with antibiotics, 5 μg/ml insulin, 15 μg/ml bovine pituitary extract, 10 μg/ml epidermal growth factor, 5 μg/ml transferrin, 1 μM hydrocortisone, 10^−8 M retinol, and ascorbic acid). Cultures were fed from the bottom every 3-4 days. Medium was collected from chondrocyte cultures on days 3, 5, 7, 10, and 14 after switching from 10% FBS-containing medium to SFM. […]
CCM or SFM, obtained as described above, was mixed with 2× sample buffer (20 mM DTT, 4% SDS, 50 mM Tris, 20% glycine, 0.002% Bromophenol blue), loaded without prior heating, and electrophoresed under non-reducing conditions at 4° C. for approximately 4 hours under constant voltage. […] Gels were rinsed twice with distilled water then stained for 1 hour in Coomassie blue stain, followed by destaining in water/methanol/acetic acid (6:3.5:0.5) until clear areas of enzyme activity were detected against a blue background. […]

[2] = test system: respiratory epithelial cells; assay: Proliferation of respiratory epithelial cells (cell number by hemocytometer count); assay type: cell-based, porcine
Procedure: Porcine tracheal tissue obtained at necropsy was cleaned of debris, rinsed thoroughly with PBS, and epithelium and submucosa removed and soaked overnight at 4° C. in MEM containing antibiotics/antimycotics. Dissociated respiratory epithelial cells were isolated using elastase digestion as described by Hicks et al. (“Rapid Isolation of Upper Respiratory Epithelial Cells,” Mol. Biol. Cell., 5(Suppl.): 118a (Abstract), (1995); Hicks et al., “Isolation and Characterization of Basal Cells from Human Upper Respiratory Epithelium,” Exp. Cell Res. 237:357-363 (1997), which are hereby incorporated by reference) and plated on top of type I collagen-coated 35 mm petri dishes at 0.2×10^6 cells/cm^2 in serum free medium. In selected experiments, cells were cultured in Biocoat type I collagen-coated 24 well plates. Medium was collected for gelatin zymography as described above.
The proliferative effects of CCM on REC were assessed by addition of CCM diluted 1:1 with SFM. REC cultures grown on type I collagen were fed 0.1 ml CCM or control SFM daily, and media were changed completely every 3 days. […] After incubation at 37° C. for 20 minutes, REC were again washed with PBS/10% FBS, then resuspended in PBS and an aliquot counted using Trypan blue dye exclusion to determine viability and cell number. […]

Row | SMILES | MMP enzyme activity on zymogram developed in presence of chelator ([1]; developing buffer containing 20 mM EDTA (FIG. 5B)) | Effect on REC proliferation ([2]; 5 nM, REC cultured with or without CCM, cell number after 7 days) | Restoration of REC proliferation to control levels ([2]; concentrations of 10 and 50 W, in presence of CCM (FIG. 8)) | Block of MMP (marker protein) activity in pooled CCM by gelatin zymography ([1]; 5 nM, medium of day 3 and day 7 (FIGS. 7A-B))
1 | O=C(O)CN(CCN(CC(=O)O)CC(=O)O)CC(=O)O [EDTA, ethylenediamine tetraacetic acid] | enzyme activity was abolished | – | – | –
2 | CNC(=O)[C@H](Cc1c[nH]c2ccccc12)NC(=O)[C@@H](CC(=O)NO)CC(C)C [GM6001] | – | nor was proliferation positively affected | proliferation was not restored to control levels | did not block marker protein activity
